# Assay results reported in patent US8173768B2, “Peptides having antimicrobial and neurotrophic activity and uses thereof” (priority 2009, dated 2012).
# Bridge positions count the residues as written; N and C are the ends. Square brackets hold non-standard residues; d marks the D form. Ends that are not written are not given here. Peptide text beside a SMILES is read from it. Phe(ol) = N[C@H](CO)Cc1ccccc1; Aib = CC(C)(N)C(=O)O
# Legend:
# [1] = pore-forming activity (dissipation of membrane potential in liposomes); format: biochemical
# Procedure: Antimicrobial assays: After each purification step, antibacterial activity was monitored by a solid plate assay as described in previous studies (14). The minimal inhibitory concentration (MIC) and the minimal bactericidal concentration (MBC) were determined according to the method of Hancock (http://cmdr.ubc.ca/bobh/showmethod.php?methodid=79). Permeabilization of bacterial membranes and pore-forming activity were assayed as previously described (Herbst, R et al. (2002), J Biol Chem 277:22353-22360; Leippe, M. et al. 1991. Proc Natl Acad Sci USA 88:7659-7663).
# No activity was found towards the Gram negative A. hydrophila at the same concentration. […] Since neuromacin contains four histidine residues in its primary structure (in contrast to none in theromacin), we evaluated the effect of a more acidic pH, at which the histidine residues are protonated, on the membrane-permeabilizing activity (FIG. 5B). […] Similar activity against the Gram-negative representative E. coli was not detected up to a neuromacin concentration of 25 μM (data not shown). We also measured the pore-forming activity of neuromacin to further characterize its mode of action by using a minimalistic membrane system. More precisely, we monitored the dissipation of a membrane potential induced in liposomes composed of azolectin, a crude phospholipid mixture from soy bean.
# [2] = system: Gram negative A. hydrophila; assay: liquid growth inhibition assay; format: cell-based, Aeromonas hydrophila; conditions: at the same concentration as against M. nishinomiyaensis
# Excerpt: Microorganisms: The Gram-positive and Gram-negative bacteria Micrococcus nishinomiyaensis and Aeromonas hydrophila respectively were isolated from the natural environment of Hirudo medicinalis. These bacterial colonies, which are present in the water, were selected from agar plate under aerobic conditions at room temperature using a random isolation grid. The Gram-positive bacteria Bacillus megaterium was used for the SYTOX Green assay.
# (§1) Antimicrobial assays: After each purification step, antibacterial activity was monitored by a solid plate assay as described in previous studies (14). The minimal inhibitory concentration (MIC) and the minimal bactericidal concentration (MBC) were determined according to the method of Hancock (http://cmdr.ubc.ca/bobh/showmethod.php?methodid=79). […]
# No activity was found towards the Gram negative A. hydrophila at the same concentration. […] Since neuromacin contains four histidine residues in its primary structure (in contrast to none in theromacin), we evaluated the effect of a more acidic pH, at which the histidine residues are protonated, on the membrane-permeabilizing activity (FIG. 5B). […] Similar activity against the Gram-negative representative E. coli was not detected up to a neuromacin concentration of 25 μM (data not shown). […]
# B. megaterium = assay: SYTOX Green membrane permeabilization assay; format: cell-based, Bacillus megaterium
# Procedure: FIG. 5 illustrates membrane permeabilization of B. megaterium induced by neuromacin. Membrane damage of the bacteria was measured fluorometrically using the dye SYTOX Green. […] Antibacterial activity of the peptides is expressed as a percentage of permeabilized bacteria. (A) Time kinetics of membrane permeabilization induced by neuromacin measured for different doses at various incubation periods. (B) Membrane permeabilizing effects of neuromacin (rhombs) in comparison with cecropin P1 (triangles) and magainin II (circles) after 30 min of incubation of B. megaterium with each peptide at various concentrations, at pH 5.2 (open symbols) and at pH 7.4 (closed symbols). […]
# as §1
# No activity was found towards the Gram negative A. hydrophila at the same concentration. […] Since neuromacin contains four histidine residues in its primary structure (in contrast to none in theromacin), we evaluated the effect of a more acidic pH, at which the histidine residues are protonated, on the membrane-permeabilizing activity (FIG. 5B). […]
# axotomized nerve cords = assay: regeneration of axotomized leech nerve cord ex vivo (time-lapse); parameters: species or system Hirudo medicinalis; conditions: native neuromacin 4 μM, aseptic conditions; 4 days without neuromacin
# Procedure: Collection and treatment of the nerve cords: Adult leeches, Hirudo medicinalis species, weighting 2-3 g were purchased from a commercial supplier (Ricarampex, France). Animals were kept in artificial pond water and starved up to 3 weeks before use. Leeches were anaesthetised in 10% ethanol-spring water for 20 min and the nerve cords were removed according to the protocol of Nicholls et al (J Neurophysiol, 1968, 31:740-756.). After three successive baths in antibiotics, cords were placed in Leibowitz-15 (L-15, Gibco) culture medium supplemented with 2% fetal calf serum, 0.6% glucose and gentamicin ([…]) (Nature, 1979, 281:67-69). Connectives between ganglia were injured in a standard manner using a pair of sterilized fine iridectomy scissors. Axotomized nerve cords were separately incubated in L-15 medium containing different microbial components: 3×10^7 CFU/ml of heat killed or live bacteria, 10 μg/ml of polyI:C (Invivogen), 100 μg/ml of zymosan (Invivogen,) and 100 μg/ml of mannane (Invivogen) for different time (t=0 to t=8 days) at room temperature. Incubations without microbial components or bacteria were performed in the same conditions as controls. All the steps were performed under sterile conditions. […]
Compound,pore-forming activity ([1]; positive control at 50 nM (data not shown)),activity towards A. hydrophila [2],"activity relative to cecropin P1 and magainin II (B. megaterium; B. megaterium, within the measurement period)","efficacy to induce membrane lesions, effect of pH (B. megaterium; pH 5.2 versus pH 7.4, FIG. 5B)",pore-forming activity ([1]; final concentrations up to 2 μM (data not shown)),start of reconnection post-axotomy (axotomized nerve cords)
"CC(=O)NC(C)(C)C(=O)N1CCC[C@H]1C(=O)NC(C)(C)C(=O)N[C@@H](C)C(=O)NC(C)(C)C(=O)N[C@@H](C)C(=O)N[C@@H](CCC(N)=O)C(=O)NC(C)(C)C(=O)N[C@H](C(=O)NC(C)(C)C(=O)NCC(=O)N[C@@H](CC(C)C)C(=O)NC(C)(C)C(=O)N1CCC[C@H]1C(=O)N[C@H](C(=O)NC(C)(C)C(=O)NC(C)(C)C(=O)N[C@@H](CCC(=O)O)C(=O)N[C@@H](CCC(N)=O)C(=O)N[C@H](CO)Cc1ccccc1)C(C)C)C(C)C [alamethicin, reference compound] (Ac-[Aib]P[Aib]A[Aib]AQ[Aib]V[Aib]GL[Aib]PV[Aib][Aib]EQ[Phe(ol)])",very strong signal,,,,,
"H-DCYEDWSRCTPGTSFLTGILWKDCHSRCKELGHRGGRCVDSPSKHCPGVLKNNKQCHCY (disulfide 2-46, 9-38, 24-56, 28-58) [neuromacin]",,No activity,over one order of magnitude lower,weaker at pH 5.2 than at pH 7.4,not detected,less than 24 hours
